Data reported in article PMC9264115, “Pd-catalyzed C–C and C–N cross-coupling reactions in 2-aminothieno[3,2-d]pyrimidin-4(3H)-one series for antiplasmodial pharmacomodulation” (RSC Advances, 2022).

What was measured:
[1] = Cytotoxic evaluation, MTT assay; assay type: cell-based; conditions: HepG2 cells, human HepG2 cell line, three independent experiments
Experimental: The HepG2 cell line was maintained at 37 °C, 5% CO2, at 90% humidity in […] supplemented with 10% fetal bovine serum, 1% L-glutamine (200 mM), and penicillin (100 U per mL)/streptomycin (100 μg mL^−1) (complete RPMI medium). The cytotoxicity of the tested molecules on the HepG2 (hepatocarcinoma cell line purchased from ATCC, ref HB-8065) cell line was assessed according to the method of Mosmann[20] with slight modifications. Briefly, 5 × 10^3 cells in 100 μL of complete medium were inoculated into each well of 96-well plates and incubated at 37 °C in humidified 5% CO2. After 24 h incubation, 100 μL of medium with various product concentrations dissolved in DMSO (final concentration less than 0.5% v/v) were added and the plates were incubated for 72 h at 37 °C. Triplicate assays were performed for each sample. Each plate was then microscopically examined for possible precipitate formation before the medium was aspirated from the wells. Next, 100 μL of MTT (3-(4,5-dimethyl-2-thiazolyl)-2,5-diphenyl-2H-tetrazolium bromide) solution (0.5 mg mL^−1 in medium without FBS) was added to each well. Cells were incubated for 2 h at 37 °C. After this time, the MTT solution was removed and DMSO (100 μL) was added to dissolve the resulting blue formazan crystals. Plates were shaken vigorously (700 rpm) for 10 min. The absorbance was measured at 570 nm with 630 nm as a reference wavelength using a BIO-TEK ELx808 Absorbance Microplate Reader (LabX, Midland, ON, Canada). DMSO was used as a blank and doxorubicin (purchased from Sigma Aldrich) as a positive control. Cell viability was calculated as a percentage of control (cells incubated without the compound). […] CC50 values to represent the mean value calculated from three independent experiments.

[2] = tested on: K1 culture-adapted P. falciparum strain; assay: Antiplasmodial evaluation, SYBR Green I fluorescence-based drug susceptibility test; assay type: cell-based; conditions: for EC50: Plasmodium falciparum, multi-resistant K1 strain of P. falciparum, 72 h incubation, three independent experiments, read-out: EC50 PfK1; for SI (selectivity index): from CC50 HepG2 and EC50 PfK1
Experimental: […]. Parasitemia was maintained daily between 1 and 3%. The P. falciparum drug susceptibility test was carried out by comparing quantities of DNA in treated and control cultures of parasite in human erythrocytes according to a SYBR Green I fluorescence-based method[19] using a 96-well fluorescence plate reader. Compounds previously dissolved in DMSO (final concentration less than 0.5% v/v) were incubated in a total assay volume of 200 μL (RPMI, 2% hematocrit and 0.4% parasitemia) for 72 h in a humidified atmosphere (10% O2 and 5% CO2) at 37 °C in 96-well flat bottom plates. Duplicate assays were performed for each sample. After incubation, plates were frozen at […] for 24 h. Then, the frozen plates were thawed for 1 h at 37 °C. Fifteen μL of each sample were transferred to 96-well flat bottom non-sterile black plates (Greiner Bio-one, Kremsmünster, Austria), already containing 15 μL of the SYBR Green I lysis buffer (2X SYBR Green I, 20 mM Tris base pH 7.5, 20 mM EDTA, 0.008% w/v saponin, 0.08% w/v Triton X-100). […] Plates were incubated for 15 min at 37 °C and then read on a TECAN Infinite F-200 spectrophotometer with excitation and emission wavelengths at 485 and 535 nm, respectively.

Structure (SMILES) | CC50 at 72 h [1] | EC50 [2] | SI (selectivity index) [2] | melting point
CC(C)(C)Nc1nc2cc(Br)sc2c(=O)[nH]1 [Compound 1, 6-Bromo-2-(tert-butylamino)thieno[3,2-d]pyrimidin-4(3H)-one] | 38.2 ± 3.5 µM | 43.2 ± 2.6 µM | 0.9 | 
Cc1ccc(Nc2cc3nc(NC(C)(C)C)[nH]c(=O)c3s2)cc1 [Compound 1a, 2-tert-Butylamino-6-[(4-methylphenyl)amino]thieno[3,2-d]pyrimidin-4(3H)-one] | 21.7 ± 2.1 µM | 10.3 ± 0.2 µM |  | 
Cc1cccc(Nc2cc3nc(NC(C)(C)C)[nH]c(=O)c3s2)c1 [Compound 1b, 2-tert-Butylamino-6-[(3-methylphenyl)amino]thieno[3,2-d]pyrimidin-4(3H)-one] | 5.3 ± 0.4 µM | 1.1 ± 0.3 µM |  | 
Cc1ccccc1Nc1cc2nc(NC(C)(C)C)[nH]c(=O)c2s1 [Compound 1c, 2-tert-Butylamino-6-[(2-methylphenyl)amino]thieno[3,2-d]pyrimidin-4(3H)-one] | 14.1 ± 0.3 µM | 4.3 ± 0.2 µM |  | 
COc1ccc(Nc2cc3nc(NC(C)(C)C)[nH]c(=O)c3s2)cc1 [Compound 1d, 2-tert-Butylamino-6-[(4-methoxyphenyl)amino]thieno[3,2-d]pyrimidin-4(3H)-one] | 24 ± 3.1 µM | 7.2 ± 2 µM | 3.3 | 205 to 207 °C
CC(C)(C)Nc1nc2cc(Nc3ccc(F)cc3)sc2c(=O)[nH]1 [Compound 1e, 2-tert-Butylamino-6-[(4-fluorophenyl)amino]thieno[3,2-d]pyrimidin-4(3H)-one] | 21.3 ± 1.6 µM | 7.1 ± 1.4 µM | 3.0 | 195 to 197 °C
CC(C)(C)Nc1nc2cc(C#CCCO)sc2c(=O)[nH]1 [Compound 2d, 2-tert-Butylamino-6-(4-hydroxybut-1-yn-1-yl)thieno[3,2-d]pyrimidin-4(3H)-one] | > 50 µM | > 10 µM |  | 
C#Cc1cc2nc(NC(C)(C)C)[nH]c(=O)c2s1 [Compound 2f, 2-tert-Butylamino-6-ethynylthieno[3,2-d]pyrimidin-4(3H)-one] | 4.7 ± 1 µM | > 12.5 µM |  | 
CN1CCN(CC#Cc2cc3nc(NC(C)(C)C)[nH]c(=O)c3s2)CC1 [Compound 2g, 2-tert-Butylamino-6-[3-(4-methylpiperazin-1-yl)prop-1-yn-1-yl]thieno[3,2-d]pyrimidin-4(3H)-one] | 41.6 ± 5.2 µM | > 5 µM |  | 
CC(C)(C)Nc1nc2cc(-c3ccc([N+](=O)[O-])cc3)sc2c(=O)[nH]1 [Compound 4b, 2-tert-Butylamino-6-(4-nitrophenyl)thieno[3,2-d]pyrimidin-4(3H)-one] |  |  |  | > 300 °C
CC(C)(C)Nc1nc2cc(-c3ccc(O)cc3)sc2c(=O)[nH]1 [Compound 4d, 2-(tert-butylamino)-6-(4-hydroxyphenyl)thieno[3,2-d]pyrimidin-4(3H)-one] | 12.2 ± 0.3 µM | 7.5 ± 1 µM |  | 
CN1CCN(c2ccc(-c3cc4nc(NC(C)(C)C)[nH]c(=O)c4s3)cc2)CC1 [Compound 4h, 2-tert-Butylamino-6-[4-(4-methylpiperazin-1-yl)phenyl]thieno[3,2-d]pyrimidin-4(3H)-one] | 5.8 ± 0.5 µM | 4.1 ± 0.7 µM |  | 
CC(C)(C)Nc1nc2cc(-c3ccc(N4CCCCC4)cc3)sc2c(=O)[nH]1 [Compound 4i, 2-tert-Butylamino-6-[4-(piperidin-1-yl)phenyl]thieno[3,2-d]pyrimidin-4(3H)-one] | > 6.25 µM | 4.1 ± 1.2 µM |  | 
CC(C)(C)Nc1nc2cc(-c3ccc(S(C)(=O)=O)cc3)sc2c(=O)[nH]1 [Compound 4k, 2-tert-Butylamino-6-[4-(methylsulfonyl)phenyl]thieno[3,2-d]pyrimidin-4(3H)-one] | > 25 µM | 3 ± 0.6 µM |  | 
CC(C)Nc1nc2cc(-c3ccc(N)cc3)sc2c(=O)[nH]1 [Compound 4q, 6-(4-aminophenyl)-2-(propan-2-ylamino)thieno[3,2-d]pyrimidin-4(3H)-one] | 11.3 ± 3.5 µM | 6 ± 1.1 µM |  | 
